Each molecule was assayed against T1, LTA4 hydrolase (Cavia porcellus, UniProt P19602) (assay: Inhibition of LTA4 hydrolase: LTB4 produced from LTA4 by enzyme preparation from guinea pig lung (HPLC)). Settings: guinea pig lung enzyme preparation 0.4-0.6 mg protein; HEPES 50 mM, pH 7.8; LTA4 63 μM; DTT 3 mM; 37° C., one minute; read-out: IC50 (concentration of the compounds required to inhibit LTA4 hydrolase activity by 50%).
T1 construct: prepared by extracting from guinea pig lung without purification; from tissue; host or cells: lung of Hartley guinea pig
T1 sequence (P19602 1-611): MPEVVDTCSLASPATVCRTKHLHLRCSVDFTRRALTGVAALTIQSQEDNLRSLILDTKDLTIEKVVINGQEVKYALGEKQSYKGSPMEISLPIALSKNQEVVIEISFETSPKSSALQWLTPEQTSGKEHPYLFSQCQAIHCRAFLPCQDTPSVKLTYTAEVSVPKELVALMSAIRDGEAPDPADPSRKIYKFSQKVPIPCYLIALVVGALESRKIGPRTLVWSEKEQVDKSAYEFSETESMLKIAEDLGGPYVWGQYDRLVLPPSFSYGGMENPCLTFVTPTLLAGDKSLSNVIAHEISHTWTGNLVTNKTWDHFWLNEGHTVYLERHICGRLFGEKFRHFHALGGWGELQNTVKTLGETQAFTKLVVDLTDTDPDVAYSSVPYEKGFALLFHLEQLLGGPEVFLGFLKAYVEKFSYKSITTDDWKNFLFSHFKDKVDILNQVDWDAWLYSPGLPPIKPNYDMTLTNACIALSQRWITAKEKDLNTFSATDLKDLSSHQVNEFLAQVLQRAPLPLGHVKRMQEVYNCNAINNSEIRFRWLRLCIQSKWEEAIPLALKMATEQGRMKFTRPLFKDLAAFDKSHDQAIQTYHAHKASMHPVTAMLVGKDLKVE
Type: biochemical
Description: Izumi et al. had reported a method of measuring LTA4 hydrolase activity by measuring an amount of LTB4 produced by an enzymatic reaction using LTA4 as a substrate (Biochem. Biophys. Res. Commun., 135, 139-145 (1986)). Effects of the present compounds on LTA4 hydrolase were examined according to the method described in the literature.
An enzyme preparation used in this pharmacological test was prepared by extracting from guinea pig lung without purification according to the method of Izumi et al. (Biochem. Biophys. Res. Commun., 135, 139-145 (1986)) and the method of Evans et al. (Biochem. Biophys. Acta, 840, 43-50 (1985)). The experimental method is as follows:
Lungs were excised from a Hartley guinea pig (body weight: 330 g). The lungs were homogenized in phosphoric acid buffer (50 mM, pH 7.4, containing 1 mM ethylenediaminetetraacetic acid (EDTA) and 1 mM dithiothreitol (DTT) having weight three times that of the lungs under ice-cooling. The homogenate was centrifuged at low speed (800×g) for 20 minutes, centrifuged at high speed (10,000×g) for 20 minutes and ultracentrifuged (100,000×g) for 60 minutes to give a supernatant. The supernatant was brought to 40% saturation by adding a saturated aqueous ammonium sulfate solution (pH 7.0-7.2, containing 1 mM DTT) dropwise under ice-cooling and centrifuged at high speed (10,000×g) for 20 minutes. The resulting supernatant was brought to 70% saturation by adding a saturated aqueous ammonium sulfate solution (pH 7.0-7.2, containing 1 mM DTT) dropwise and centrifuged at high speed (10,000×g) for 20 minutes. The obtained pellet was dissolved in 2 ml of Tris-acetic acid buffer (20 mM, pH 7.8, containing 1 mM DTT) and dialyzed in 2 liters of the solution to give the enzyme preparation.
LTA4 used, which is the substrate, was prepared by hydrolyzing LTA4 methyl ester and dissolved in ethanol.
In order to examine effects of the test compounds on the enzyme preparation, reactions were performed under the following condition using mixed solutions consisting of the composition shown in Table 1. […]
HEPES buffer 50 mM, pH 7.8
Enzyme preparation 0.4-0.6 mg protein
DTT aqueous solution 3 mM
Test compounds 10^-8 -10^-3 M
The above-mentioned solution (50 μl) was incubated at 37° C. for one minute. To the reaction mixture was added 100 μl of a mixed liquid of acetonitrile-ethanol-acetic acid (150:50:3, volume ratio) under ice-cooling. The mixture was allowed to stand at -20° C. for 30 minutes and centrifuged at high speed (10,000×g) for five minutes to give a supernatant. An amount of LTB4 produced in the supernatant was measured by high-speed liquid chromatography.
The degree of the inhibitory effect of each test compound on LTA4 hydrolase is expressed by the inhibition rate calculated by the following equation. [formula]
A: amount of LTB4 formed in the absence of the test compound
B: amount of LTB4 formed in the presence of the test compound
The results are represented in concentration of the compounds required to inhibit LTA4 hydrolase activity by 50%, i.e., IC50.

IC50 [nM] | SMILES
31 | CCCCc1ccc(CS[C@H]2C[C@@H](C(=O)O)N(C(=O)[C@H](C)CS)C2)cc1 [Compound f, (4S)-4-(4-butylbenzylthio)-1-[(2S)-3-mercapto-2-methylpropionyl]-L-proline]
120 | CSc1ccc(CS[C@H]2C[C@@H](C(=O)O)N(C(=O)[C@H](C)CS)C2)cc1 [Compound g, 1-[(2S)-3-mercapto-2-methylpropionyl]-(4S)-4-[4-(methylthio)benzylthio]-L-proline]
34 | C[C@H](CS)C(=O)N1C[C@@H](SCc2ccc(C3CCCCC3)cc2)C[C@H]1C(=O)O [Compound h, (4S)-4-(4-cyclohexylbenzylthio)-1-[(2S)-3-mercapto-2-methylpropionyl]-L-proline]
840 | Cc1ccccc1CS[C@H]1C[C@@H](C(=O)O)N(C(=O)[C@H](C)CS)C1 [Compound a, 1-[(2S)-3-mercapto-2-methylpropionyl]-(4S)-4-(2-methylbenzylthio)-L-proline]
52 | CC(C)c1ccc(CS[C@H]2C[C@@H](C(=O)O)N(C(=O)[C@H](C)CS)C2)cc1 [Compound b, (4S)-4-(4-isopropylbenzylthio)-1-[(2S)-3-mercapto-2-methylpropionyl]-L-proline]
290 | CC(C)c1ccc(CS[C@@H]2C[C@@H](C(=O)O)N(C(=O)[C@H](C)CS)C2)cc1 [Compound d, (4R)-4-(4-isopropylbenzylthio)-1-[(2S)-3-mercapto-2-methylpropionyl]-L-proline]
800 | CC(C)c1ccc(CO[C@@H]2C[C@@H](C(=O)O)N(C(=O)[C@H](C)CS)C2)cc1 [Compound e, (4R)-4-(4-isopropylbenzyloxy)-1-[(2S)-3-mercapto-2-methylpropionyl]-L-proline]
790 | CC(C)c1ccc(CCS[C@H]2C[C@@H](C(=O)O)N(C(=O)[C@H](C)CS)C2)cc1 [Compound c, (4S)-4-(4-isopropylphenyethylthio)-1-[(2S)-3-mercapto-2-methylpropionyl]-L-proline]
